This test concerns the target T1, Porcine Intrinsic Factor (Sus scrofa, UniProt A0A8D1ENZ1).
T1 construct: purchased Sigma
Put plainly: Relative IF affinity of 5'O-VB12 derivatives (57CoVB12 competition, BSA-coated charcoal separation). As to conditions: inhibition of 57CoVB12 binding to porcine IF compared to unmodified VB12; 20 minutes at room temperature, pH 7.5. On the procedure: Determination of the relative IF affinity of various 5'O-VB12 derivatives.
IF Buffer: BSA (VB12 and IF deficient) BSA (Sigma A-3902) was dissolved at 1 mg/ml in 0.1M potassium phosphate buffer pH 7.5.
^57 CoVB12 : ^57 Co stock (50 μl) (Kodak) was diluted into 50 ul of stock in 25 ml of IF buffer to give a solution of 1 ng ^57 CoVB12 /25 ml. 250 ng cold VB12 was added to 25 ml of hot ^57 CoVB12 solution to give a 10 ng/ml solution.
Porcine Intrinsic Factor: Porcine IF (Sigma) was dissolved in IF buffer at 200 Units/ml, and frozen in 500 ul lots (100 IU aliquots) until required.
BSA-coated charcoal: BSA (1%) was added to an equal volume of 5% charcoal solution of 0.1 M potassium phosphate buffer pH 7.5 and stirred gently for 30 minutes.
Ten fold up dilutions of VB12 or VB12 derivatives were prepared down to 1 ng/ml in IF buffer. An equal volume of diluted IF was added to each sample and incubated for 20 minutes at room temperature. An equal volume of the BSA-coated charcoal was added to each sample, which was mixed prior to centrifugation. Following centrifugation the supernatant and pellet of each sample were separated and ^57 CoVB12 determined by counting in a gamma counter. Data is represented as the % inhibition of ^57 CoVB2 binding when compared to unmodified VB12.
T1 sequence (A0A8D1ENZ1 29-425): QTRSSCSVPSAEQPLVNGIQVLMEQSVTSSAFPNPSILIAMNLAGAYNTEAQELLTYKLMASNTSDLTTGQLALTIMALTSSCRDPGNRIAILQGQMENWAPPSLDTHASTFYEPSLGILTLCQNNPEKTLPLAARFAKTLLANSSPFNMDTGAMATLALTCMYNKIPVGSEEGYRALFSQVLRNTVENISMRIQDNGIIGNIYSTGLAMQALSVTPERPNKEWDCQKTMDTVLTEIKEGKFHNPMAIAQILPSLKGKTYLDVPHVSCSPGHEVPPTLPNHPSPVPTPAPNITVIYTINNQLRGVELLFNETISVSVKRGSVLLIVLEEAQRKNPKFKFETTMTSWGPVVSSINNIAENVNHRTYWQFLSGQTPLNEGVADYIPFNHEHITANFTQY
“5'OH-(adipylhydrazidyl)-VB12 [adiphylhydrazidyl-5'O-VB12]”: the “% binding relative to vitamin B12” value is reported as 29%.

Turning to “5'OH-(aminobutyl)-VB12 [aminobutyl-5'O-VB12]”, the “% binding relative to vitamin B12” value came out at 27%.

Turning to “5'OH-(aminododecanyl)-VB12 [aminododecanyl-5'O-VB12]”, the “% binding relative to vitamin B12” value is listed as 31%.

Turning to “5'OH-(aminoethyl)-VB12 [aminoethyl-5'O-VB12]”, the “% binding relative to vitamin B12” value is on record as 40%.

In the case of “5'OH-(aminohexyl)-VB12 [aminohexyl-5'O-VB12]”, the “% binding relative to vitamin B12” value came out at 25%.

For the substance 5'OH-(dodecyl)-VB12 [dodecyl-5'O-VB12], the “% binding relative to vitamin B12” value stood at 35%.

On to “5'OH-(hexadecyl)-VB12 [hexadecy-5'O-VB12]”, for which the “% binding relative to vitamin B12” value is reported as 0.78%.

5'OH-(hexyl)-VB12 [hexyl-5'O-VB12]: the “% binding relative to vitamin B12” value is 49%.

Consider “5'OH-(octadecyl)-VB12 [octadecyl-5'O-VB12]”, for which the “% binding relative to vitamin B12” value is listed as 0.57%.

For the substance “5'OH-(succinylhydrazidyl)-VB12 [succinylhydrazidyl-5'O-VB12]”, the “% binding relative to vitamin B12” value amounted to 37%.

In the case of “5'OH-(tetradecyl)-VB12 [tetradecyl-5'O-VB12]”, the “% binding relative to vitamin B12” value was found to be 4.2%.

In the case of VB12 -glycine acid [HO-Gly-5'O-VB12], the “% binding relative to vitamin B12” value amounted to 25%.

The values are drawn from patent US6150341A, “Vitamin B12 derivatives and methods for their preparation” (Biotch Australia Pty Limited, priority 1998, dated 2000).
